# Experimental data: PMC11372264, “^61Cu-PSMA–Targeted PET for Prostate Cancer: From Radiotracer Development to First-in-Human Imaging” (Journal of Nuclear Medicine, 2024)
# Key:
# [1] = target: T1, PSMA (Homo sapiens, UniProt Q04609); assay: Competition binding on LNCaP cells using [^125I-BA]KuE as reference radioligand; conditions: [^125I-BA]KuE 0.2 nM, 1 h on ice, determined with natCu/natGa complexes
# T1 construct: endogenous in cells; host or cells: LNCaP cells
# Experimental: (§1) The lipophilicity of [^61Cu]Cu-DOTAGA-PSMA-I&T and [^61Cu]Cu-NODAGA-PSMA-I&T was assessed by determining the distribution coefficient in a 1:1 mixture of 1-octanol–to–phosphate-buffered saline at pH 7.4, in comparison with all reference radiotracers. Inhibitory concentration of 50% (IC50) was assessed by competition binding on lymph node carcinoma of the prostate (LNCaP) using ((S)-1-carboxy-5-(4-(-^125I-iodo-benzamido)pentyl)carbamoyl)-L-glutamic acid as the reference radioligand. Cellular uptake and distribution were assessed in LNCaP cells at 5, 15, 30, 60, and 120 min after exposure to the radioligand at 37°C, either alone or in the presence of 10 µM 2-(phosphonomethyl)pentanedioic acid to distinguish between specific and nonspecific uptake.
# (§2) FIGURE 1. In vitro assessment in LNCaP cells after 1 h at 37°C. (A) Competition binding activity curves of ^natCu-DOTAGA-PSMA-I&T, ^natCu-NODAGA-PSMA-I&T, and ^natGa-PSMA-11 on LNCaP cells after 1 h of incubation on ice, using ((S)-1-carboxy-5-(4-(-^125I-iodo-benzamido)pentyl)carbamoyl)-L-glutamic acid ([^125I-BA]KuE) at concentration of 0.2 nM as reference radioligand. (B) Cellular uptake (surface-bound + internalized). Cell surface–bound and internalized fractions are indicated. Results represent mean ± SD of specific (total − nonspecific) uptake from minimum of 2 separate experiments, each in triplicate.
# [2] = test system: LNCaP cells; assay: Cellular uptake and distribution (surface-bound, internalized) in LNCaP cells; type: cell-based; conditions: 1 h, 37°C, specific uptake
# Experimental: as §1, §2
# [3] = Lipophilicity: distribution coefficient in 1:1 1-octanol/phosphate-buffered saline at pH 7.4; type: physicochemical
# Experimental: as §1
# [4] = test system: LNCaP xenografts; assay: Biodistribution in LNCaP xenografts; type: in vivo, mice
# Experimental: All animal experiments were conducted in accordance with Swiss animal welfare laws and regulations under license number 30515 granted by the Veterinary Office, Department of Health, Canton Basel-Stadt, Switzerland. Male athymic nude-Foxn1^nu/Foxn1^+ mice (Envigo), 4–6 wk old, were inoculated subcutaneously on the shoulder with 10^7 LNCaP cells, freshly suspended in a 1:1 ratio of sterile minimum essential medium with basal medium Eagle and Matrigel. The tumors were allowed to grow to a volume of approximately 200 mm^3.
# The biodistribution of [^61Cu]Cu-DOTAGA-PSMA-I&T and [^61Cu]Cu-NODAGA-PSMA-I&T (100 µL/200 pmol/2–3 MBq) was compared with that of [^68Ga]Ga-DOTAGA-PSMA-I&T, [^68Ga]Ga-NODAGA-PSMA-I&T, and [^68Ga]Ga-PSMA-11 (100 µL/200 pmol/3–5 MBq), as well as [^18F]PSMA-1007 (100 µL/70 pmol/15 MBq). This comparison was conducted at 1 h after injection for all radiotracers and at 4 h after injection for the ^61Cu-labeled tracers and [^18F]PSMA-1007. The specificity of the ^61Cu-labeled tracers was assessed at 1 h after injection by blocking studies with 2-(phosphonomethyl)pentanedioic acid (100 µL/1.3 µmol) being injected 3–5 min before the injection of the radiotracer.
# T1 sequence (Q04609 whole entry): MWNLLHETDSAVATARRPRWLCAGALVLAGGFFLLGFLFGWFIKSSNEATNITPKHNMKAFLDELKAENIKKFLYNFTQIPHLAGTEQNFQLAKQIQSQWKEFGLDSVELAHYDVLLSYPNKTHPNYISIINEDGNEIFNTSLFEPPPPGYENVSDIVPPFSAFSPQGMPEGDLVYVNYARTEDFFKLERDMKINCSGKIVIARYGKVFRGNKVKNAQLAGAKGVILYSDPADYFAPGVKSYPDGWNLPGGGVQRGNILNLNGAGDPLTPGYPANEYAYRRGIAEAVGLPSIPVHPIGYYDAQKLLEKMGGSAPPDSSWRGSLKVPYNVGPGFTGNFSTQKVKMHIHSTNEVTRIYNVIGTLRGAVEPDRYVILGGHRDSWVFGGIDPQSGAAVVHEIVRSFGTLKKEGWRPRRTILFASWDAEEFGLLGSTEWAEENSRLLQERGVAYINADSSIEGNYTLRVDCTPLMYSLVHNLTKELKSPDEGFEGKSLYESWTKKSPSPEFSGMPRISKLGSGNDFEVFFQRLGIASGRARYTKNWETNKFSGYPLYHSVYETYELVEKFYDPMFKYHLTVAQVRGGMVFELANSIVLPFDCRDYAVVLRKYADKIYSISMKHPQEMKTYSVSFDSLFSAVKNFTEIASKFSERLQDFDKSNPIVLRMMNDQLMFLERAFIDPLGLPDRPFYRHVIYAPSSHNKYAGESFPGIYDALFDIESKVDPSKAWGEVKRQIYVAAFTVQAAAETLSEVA
smiles,measurement,setting,value
O=C([O-])CN1CCN(CC(=O)O)CCN(CC(=O)[O-])CCN(C(CCC(=O)N[C@H](Cc2ccc(O)c(I)c2)C(=O)N[C@H](Cc2ccccc2)C(=O)N[C@H](CCCCNC(=O)CCCCCCC(=O)NCCCC[C@H](NC(=O)N[C@@H](CCC(=O)O)C(=O)O)C(=O)O)C(=O)O)C(=O)O)CC1.[Cu+2] (some centres unmarked) [^natCu-DOTAGA-PSMA-I&T],IC50,[1],11.2 ± 2.3 nM
O=C([O-])CN1CCN(CC(=O)[O-])CCN(C(CCC(=O)N[C@H](Cc2ccc(O)c(I)c2)C(=O)N[C@H](Cc2ccccc2)C(=O)N[C@H](CCCCNC(=O)CCCCCCC(=O)NCCCC[C@H](NC(=O)N[C@@H](CCC(=O)O)C(=O)O)C(=O)O)C(=O)O)C(=O)[O-])CC1.[68Ga+3] (some centres unmarked) [[^68Ga]Ga-NODAGA-PSMA-I&T],Cellular uptake (surface-bound + internalized),[2],18.1% ± 2.6%
"O=C([O-])CN(CCN(CC(=O)[O-])Cc1cc(CCC(=O)NCCCCCC(=O)NCCCC[C@H](NC(=O)N[C@@H](CCC(=O)O)C(=O)O)C(=O)O)ccc1[O-])Cc1cc(CCC(=O)O)ccc1[O-].[68Ga+3].[OH3+] [[^68Ga]Ga-PSMA-11, reference compound]",logDpH7.4,[3],−3.89 ± 0.19
same,Cellular uptake (surface-bound + internalized),[2],25.8% ± 0.5%
same,"Biodistribution, Adrenals",[4]; 1 h after injection,19.2 ± 5.3 %IA/g
same,"Biodistribution, Blood",[4]; 1 h after injection,0.25 ± 0.07 %IA/g
same,"Biodistribution, Femur",[4]; 1 h after injection,3.69 ± 1.86 %IA/g
same,"Biodistribution, Heart",[4]; 1 h after injection,0.32 ± 0.10 %IA/g
same,"Biodistribution, Intestine",[4]; 1 h after injection,1.52 ± 0.60 %IA/g
same,"Biodistribution, Kidneys",[4]; 1 h after injection,159 ± 31 %IA/g
same,"Biodistribution, Liver",[4]; 1 h after injection,0.54 ± 0.27 %IA/g
same,"Biodistribution, Lung",[4]; 1 h after injection,1.43 ± 0.43 %IA/g
same,"Biodistribution, Muscles",[4]; 1 h after injection,0.90 ± 0.36 %IA/g
same,"Biodistribution, Pancreas",[4]; 1 h after injection,0.70 ± 0.12 %IA/g
same,"Biodistribution, Salivary glands",[4]; 1 h after injection,1.56 ± 0.31 %IA/g
same,"Biodistribution, Spleen",[4]; 1 h after injection,6.38 ± 1.37 %IA/g
same,"Biodistribution, Stomach",[4]; 1 h after injection,0.69 ± 0.11 %IA/g
same,"Biodistribution, Tumor (tumor uptake)",[4]; 1 h after injection,10.2 ± 1.5 %IA/g
same,Tumor-to-Adrenals ratio,[4]; 1 h after injection,0.58 ± 0.26
same,Tumor-to-Blood ratio,[4]; 1 h after injection,45.3 ± 19.7
same,Tumor-to-Intestine ratio,[4]; 1 h after injection,8.66 ± 6.90
same,Tumor-to-Kidneys ratio,[4]; 1 h after injection,0.07 ± 0.02
same,Tumor-to-Liver ratio,[4]; 1 h after injection,23.5 ± 12.5
same,Tumor-to-Muscles ratio,[4]; 1 h after injection,13.6 ± 8.3
same,Tumor-to-Salivary glands ratio,[4]; 1 h after injection,6.72 ± 1.51
same,Tumor-to-Spleen ratio,[4]; 1 h after injection,1.69 ± 0.58
O=C([O-])CN1CCN(CC(=O)[O-])CCN(C(CCC(=O)N[C@H](Cc2ccc(O)c(I)c2)C(=O)N[C@H](Cc2ccccc2)C(=O)N[C@H](CCCCNC(=O)CCCCCCC(=O)NCCCC[C@H](NC(=O)N[C@@H](CCC(=O)O)C(=O)O)C(=O)O)C(=O)O)C(=O)O)CC1.[Cu+2] (some centres unmarked) [^natCu-NODAGA-PSMA-I&T],IC50,[1],9.3 ± 1.8 nM
"O=C([O-])CN1CCN(CC(=O)[O-])CCN(C(CCC(=O)N[C@H](Cc2ccc(O)c(I)c2)C(=O)N[C@H](Cc2ccccc2)C(=O)N[C@H](CCCCNC(=O)CCCCCCC(=O)NCCCC[C@H](NC(=O)N[C@@H](CCC(=O)O)C(=O)O)C(=O)O)C(=O)O)C(=O)O)CCN(CC(=O)[O-])CC1.[68Ga+3] (some centres unmarked) [[^68Ga]Ga-DOTAGA-PSMA-I&T, reference compound]",Cellular uptake (surface-bound + internalized),[2],20.6% ± 2.3%
"O=C(O)CC[C@H](NC(=O)N[C@@H](CCCCNC(=O)[C@H](Cc1ccc2ccccc2c1)NC(=O)c1ccc(CNC(=O)[C@H](CCC(=O)O)NC(=O)[C@H](CCC(=O)O)NC(=O)c2ccc([18F])nc2)cc1)C(=O)O)C(=O)O [[^18F]PSMA-1007, reference compound]",logDpH7.4,[3],−3.02 ± 0.11
same,"Biodistribution, Adrenals",[4]; 1 h after injection,7.18 ± 2.20 %IA/g
same,"Biodistribution, Blood",[4]; 1 h after injection,0.41 ± 0.11 %IA/g
same,"Biodistribution, Femur",[4]; 1 h after injection,0.94 ± 0.13 %IA/g
same,"Biodistribution, Heart",[4]; 1 h after injection,1.25 ± 0.29 %IA/g
same,"Biodistribution, Intestine",[4]; 1 h after injection,1.04 ± 0.33 %IA/g
same,"Biodistribution, Kidneys",[4]; 1 h after injection,100 ± 17 %IA/g
same,"Biodistribution, Liver",[4]; 1 h after injection,0.93 ± 0.26 %IA/g
same,"Biodistribution, Lung",[4]; 1 h after injection,2.08 ± 0.24 %IA/g
same,"Biodistribution, Muscles",[4]; 1 h after injection,0.53 ± 0.09 %IA/g
same,"Biodistribution, Pancreas",[4]; 1 h after injection,1.32 ± 0.58 %IA/g
same,"Biodistribution, Salivary glands",[4]; 1 h after injection,2.54 ± 0.72 %IA/g
same,"Biodistribution, Spleen",[4]; 1 h after injection,11.0 ± 1.1 %IA/g
same,"Biodistribution, Stomach",[4]; 1 h after injection,0.75 ± 0.15 %IA/g
same,"Biodistribution, Tumor (tumor uptake)",[4]; 1 h after injection,9.70 ± 2.57 %IA/g
same,Tumor-to-Adrenals ratio,[4]; 1 h after injection,1.45 ± 0.55
same,Tumor-to-Blood ratio,[4]; 1 h after injection,25.8 ± 11.5
same,Tumor-to-Intestine ratio,[4]; 1 h after injection,10.3 ± 4.8
same,Tumor-to-Kidneys ratio,[4]; 1 h after injection,0.10 ± 0.03
same,Tumor-to-Liver ratio,[4]; 1 h after injection,11.3 ± 4.5
same,Tumor-to-Muscles ratio,[4]; 1 h after injection,19.2 ± 6.5
same,Tumor-to-Salivary glands ratio,[4]; 1 h after injection,4.12 ± 1.60
same,Tumor-to-Spleen ratio,[4]; 1 h after injection,0.89 ± 0.20
same,"Biodistribution, Adrenals",[4]; 4 h after injection,8.03 ± 2.66 %IA/g
same,"Biodistribution, Blood",[4]; 4 h after injection,0.17 ± 0.04 %IA/g
same,"Biodistribution, Femur",[4]; 4 h after injection,0.62 ± 0.11 %IA/g
same,"Biodistribution, Heart",[4]; 4 h after injection,0.53 ± 0.23 %IA/g
same,"Biodistribution, Intestine",[4]; 4 h after injection,0.43 ± 0.22 %IA/g
same,"Biodistribution, Kidneys",[4]; 4 h after injection,132 ± 9 %IA/g
same,"Biodistribution, Liver",[4]; 4 h after injection,0.32 ± 0.16 %IA/g
same,"Biodistribution, Lung",[4]; 4 h after injection,1.61 ± 0.58 %IA/g
same,"Biodistribution, Muscles",[4]; 4 h after injection,0.27 ± 0.11 %IA/g
same,"Biodistribution, Pancreas",[4]; 4 h after injection,0.80 ± 0.32 %IA/g
same,"Biodistribution, Salivary glands",[4]; 4 h after injection,1.62 ± 0.43 %IA/g
same,"Biodistribution, Spleen",[4]; 4 h after injection,8.33 ± 2.11 %IA/g
same,"Biodistribution, Stomach",[4]; 4 h after injection,0.47 ± 0.16 %IA/g
same,"Biodistribution, Tumor (tumor uptake)",[4]; 4 h after injection,6.28 ± 2.19 %IA/g
same,Tumor-to-Adrenals ratio,[4]; 4 h after injection,0.78 ± 0.11
same,Tumor-to-Blood ratio,[4]; 4 h after injection,42.7 ± 16.4
same,Tumor-to-Intestine ratio,[4]; 4 h after injection,12.4 ± 4.4
same,Tumor-to-Kidneys ratio,[4]; 4 h after injection,0.04 ± 0.01
same,Tumor-to-Liver ratio,[4]; 4 h after injection,18.4 ± 8.5
same,Tumor-to-Muscles ratio,[4]; 4 h after injection,20.1 ± 2.5
same,Tumor-to-Salivary glands ratio,[4]; 4 h after injection,3.63 ± 0.40
same,Tumor-to-Spleen ratio,[4]; 4 h after injection,0.71 ± 0.12
"O=C([O-])CN(CCN(CC(=O)[O-])Cc1cc(CCC(=O)NCCCCCC(=O)NCCCC[C@H](NC(=O)N[C@@H](CCC(=O)O)C(=O)O)C(=O)O)ccc1O)Cc1cc(CCC(=O)O)ccc1[O-].[Ga+3] [^natGa-PSMA-11, reference compound]",IC50,[1],2.4 ± 0.4 nM
